Test results taken from US12479791B2, “Cationic lipid” (Takeda Pharmaceutical Company Limited, priority 2018, dated 2025).

Legend:
[1] = Analysis of luciferase siRNA-encapsulated lipid nanoparticle (Production Example 1); assay type: physicochemical; details: for Rate of encapsulation / Average particle size: luc siRNA lipid nanoparticle; for siRNA concentration: luc siRNA lipid nanoparticle dispersion after dialysis and filtration; for Average particle size: cationic lipid:DPPC:cholesterol:GS-020=60:10.6:28:1.4, Z-average, dynamic light scattering
From the text: (§1) The particle size of the lipid particle (in the composition) can be measured by a known approach. For example, the particle size can be calculated as a Z-average particle size by the cumulant analysis of an autocorrelation function using a particle size measurement apparatus Zetasizer Nano ZS (Malvern Instruments) based on a dynamic light scattering measurement technique. The particle size (average particle size) of the lipid particle (in the composition) is, for example, 10 to 200 nm, preferably 60 to 170 nm.
(§2) The concentration and rate of encapsulation of the nucleic acid (e.g., siRNA or mRNA) in the composition of the present invention can be measured by a known approach. For example, the nucleic acid is fluorescently labeled using Quant-iT™ RiboGreen® (Invitrogen Corp.), and the fluorescence intensity can be measured to determine the concentration and the rate of encapsulation. The concentration of the nucleic acid in the composition can be calculated using a calibration curve prepared from aqueous nucleic acid solutions having known concentrations. The rate of encapsulation can be calculated on the basis of the difference in fluorescence intensity between the presence and absence of addition of Triton-X 100 (surfactant for disrupting the lipid particle). The concentration of the nucleic acid in the composition refers to the total concentration of a nucleic acid encapsulated in the lipid particle and an unencapsulated nucleic acid. The rate of encapsulation refers to the ratio of the nucleic acid encapsulated in the lipid particle to all nucleic acids in the composition.
A lipid mixture (cationic lipid:DPPC:cholesterol:GS-020=60:10.6:28:1.4, molar ratio) was dissolved in 90% of EtOH and 10% of a 25 mM acetate buffer solution (pH 4.0) to obtain a 7.4 mg/ml lipid solution. Luciferase (luc) siRNA (see Table 2) was dissolved in a 25 mM acetate buffer solution (pH 4.0) to obtain a 0.15 mg/ml nucleic acid solution. The obtained lipid solution and nucleic acid solution were mixed at a flow rate ratio of 1 ml/min:5 ml/min at room temperature using Asia microfluidic system (Syrris Ltd.) to obtain a dispersion containing a composition. The obtained dispersion was dialyzed against water at room temperature for 1 hour and against PBS at room temperature for 18 hours using Slyde-A-Lyzer (molecular weight cutoff: 20 K, Thermo Fischer Scientific Inc.). Subsequently, the dialysate was filtered through a 0.2 μm syringe filter (Iwaki) and preserved at 4° C. Hereinafter, the particle size of the lipid particle in the composition was calculated as a Z-average particle size by the cumulant analysis of an autocorrelation function using a particle size measurement apparatus Zetasizer Nano ZS (Malvern Instruments) based on a dynamic light scattering measurement technique.

[2] = test system: human liver cancer-derived cell line Hep3B stably expressing luciferase; experiment: Transfection of cultured cell with siRNA (luciferase knockdown); assay type: cell-based; details: lipid particle containing luciferase siRNA, 48 hours after addition, read-out: siRNA concentration necessary for 50% knockdown
Protocol: A human liver cancer-derived cell line Hep3B stably expressing luciferase was cultured at a cell density of 6000 cells/well in a 96-well plate. 24 hours later, 10 μl of the lipid particle containing luciferase siRNA was added to the medium. 48 hours after the addition of siRNA, the amount of decrease in expression (knockdown) of luciferase was measured using Picagene LT2.0 kit (Toyobo Co., Ltd.).

[3] = test system: human colorectal cancer-derived cell line HCT116; experiment: Transfection of cultured cell with mRNA (luciferase luminescence); assay type: cell-based; details: 10 ng luciferase mRNA, 24 hours, Table 10 (PBS control 293)
Protocol: A human colorectal cancer-derived cell line HCT116 was cultured at a cell density of 6000 cells/well in a 96-well plate. 24 hours later, 10 μl of the lipid particle containing 10 ng of luciferase mRNA was added to the medium. 24 hours after the addition of mRNA, a reagent of Picagene LT2.0 kit (Toyobo Co., Ltd.) was added to the culture plate of HCT116. The luminescence (count per sec (cps)) of luciferase was measured using a luminescence plate reader EnVision (PerkinElmer, Inc.).

[4] = test system: Col1a1 gene; experiment: Hepatic collagen 1a1 gene knockdown in CCl4 hepatic fibrosis mouse model; assay type: in vivo; details: male Balb/c mouse, Col1a1 siRNA + FVII siRNA 0.1 + 0.1 mg/kg intravenous, liver 4 days after administration, qPCR normalized with GAPDH, vs siRNA non-administration group
Protocol: (§3) The Col1a1 siRNA-encapsulated lipid nanoparticle was administered at 0.1 mg/kg into the orbital plexus of the vein of each 8-week-old male Balb/c mouse. 3 hours later, CCl4 mixed with corn oil was orally administered at a dose of 0.1 mL/kg (10 mL/kg) by forced single-dose administration (n=6 in each group). 4 days after the administration of the siRNA-encapsulated lipid nanoparticle, the liver was collected from the mouse euthanized under anesthesia, followed by gene expression analysis by quantitative PCR. The Col1a1 gene expression level and the FVII gene expression level were normalized with the expression level of GAPDH. The amount of decrease in Col1a1 gene expression as compared with a siRNA non-administration group was regarded as the rate of knockdown. In mice intravenously given the siRNA-encapsulated lipid nanoparticle formed using the compound of the present invention, the knockdown of the activated stellate cell marker gene Col1a1 gene was strongly observed, as compared with the rate of knockdown of the hepatic parenchymal cell marker gene FVII.

[5] = Analysis of Col1a1 siRNA + FVII siRNA-encapsulated lipid nanoparticle (Production Example 3); assay type: physicochemical; details: for Rate of encapsulation / Particle size: Col1a1 siRNA + FVII siRNA lipid nanoparticle; for Particle size: cationic lipid:DPPC:cholesterol:GS-020=60:10.6:28:1.4; for Col1a1 siRNA + FVII siRNA concentration: lipid nanoparticle dispersion after dialysis and filtration
From the text: as §1, §2
A lipid mixture (cationic lipid:DPPC:cholesterol:GS-020=60:10.6:28:1.4, molar ratio) was dissolved in 90% of EtOH and 10% of a 25 mM acetate buffer solution (pH 4.0) to obtain a 7.4 mg/ml lipid solution. siRNA against collagen 1a1 (Col1a1) and siRNA against factor VII (FVII) were dissolved in equal weights in a 25 mM acetate buffer solution (pH 4.0) to obtain a 0.15 mg/ml nucleic acid solution. The sequences of Col1a1 siRNA and FVII siRNA were quoted from Hepatology, […], No. 4, 2015, and Silence, Vol. 1, No. 16, 2010, respectively. The obtained lipid solution and nucleic acid solution were mixed at a flow rate ratio of 1 ml/min:5 ml/min using a microfluidic mixing apparatus NanoAssemblr (Precision NanoSystems Inc.) to obtain a dispersion containing a composition. The obtained dispersion was dialyzed against water at room temperature for 1 hour and against PBS at room temperature for 18 hours using Slyde-A-Lyzer (molecular weight cutoff: 20 K, Thermo Fischer Scientific Inc.). Subsequently, the dialysate was filtered through a 0.2 μm syringe filter (Iwaki) and preserved at 4° C. The siRNA-encapsulated lipid nanoparticle was very favorably formed using the compound of the present invention.

[6] = test system: FVII gene; experiment: Hepatic FVII gene knockdown in CCl4 hepatic fibrosis mouse model; assay type: in vivo; details: male Balb/c mouse, Col1a1 siRNA + FVII siRNA 0.1 + 0.1 mg/kg intravenous, liver 4 days after administration, qPCR normalized with GAPDH
Protocol: as §3

[7] = Analysis of luciferase mRNA-encapsulated lipid nanoparticle (Production Example 2); assay type: physicochemical; details: for Rate of encapsulation / Average particle size: luciferase mRNA lipid nanoparticle; for mRNA concentration: luciferase mRNA lipid nanoparticle dispersion after dialysis and filtration; for Average particle size: cationic lipid:DPPC:cholesterol:GS-020=60:10.6:28:1.4
From the text: as §1, §2
A lipid mixture (cationic lipid:DPPC:cholesterol:GS-020=60:10.6:28:1.4, molar ratio) was dissolved in 90% of EtOH and 10% of water to obtain an 8.5 mg/ml lipid solution. Luciferase mRNA (TriLink BioTechnologies, Inc.) was dissolved in a 10 mM 2-morpholinoethanesulfonic acid (MES) buffer solution (pH 4.0) to obtain a 0.22 mg/ml nucleic acid solution. The obtained lipid solution and nucleic acid solution were mixed at a flow rate ratio of 3 ml/min:6 ml/min at room temperature using NanoAssemblr apparatus (Precision NanoSystems Inc.) to obtain a dispersion containing a composition. The obtained dispersion was dialyzed against water at room temperature for 1 hour and against PBS at 4° C. for 48 hours using Slyde-A-Lyzer (molecular weight cutoff: 20 K, Thermo Fischer Scientific Inc.). Subsequently, the dialysate was filtered through a 0.2 μm syringe filter (Iwaki) and preserved at 4° C.

Row | Compound | Rate of encapsulation [1] [%] | siRNA concentration [1] [µg/mL] | Average particle size [1] [nm] | IC50 [2] [nM] | Average luminescence (cps) of 3 wells [3] [cps] | Rate of Col1a1 knockdown [4] [%] | Rate of encapsulation [5] [%] | Particle size [5] [nm] | Col1a1 siRNA + FVII siRNA concentration [5] [µg/mL] | Rate of FVII knockdown [6] [%] | Rate of encapsulation [7] [%] | mRNA concentration [7] [µg/mL] | Average particle size [7] [nm]
1 | CCCCCCCC(=O)OCC(COC(=O)CCCCCCC)(COC(=O)CCCN(C)C)COC(=O)C(CCCCCC)CCCCCC [Example 2, 2-(((4-(Dimethylamino)butanoyl)oxy)methyl)-2-(((2-hexyloctanoyl)oxy)methyl)propane-1,3-diyl dioctanoate] | 96 | 415 | 71 | 14 | – | – | – | – | – | – | – | – | –
2 | CCCCCCCC(=O)OCC(COC(=O)CCCCCCC)(COC(=O)CCCCN(C)C)COC(=O)C(CCCCCC)CCCCCC [Example 3, 2-(((5-(Dimethylamino)pentanoyl)oxy)methyl)-2-(((2-hexyloctanoyl)oxy)methyl)propane-1,3-diyl dioctanoate] | 96 | 445 | 81 | 55 | – | – | – | – | – | – | – | – | –
3 | CCCCCCC(=O)OCC(COC(=O)CCCN(C)C)(COC(=O)C(CCCCC)CCCCC)COC(=O)C(CCCCC)CCCCC [Example 4, 2-(((4-(Dimethylamino)butanoyl)oxy)methyl)-2-((heptanoyloxy)methyl)propane-1,3-diyl bis(2-pentylheptanoate)] | 91 | 121 | 73 | 190 | – | – | – | – | – | – | – | – | –
4 | CCCCCCC(=O)OCC(COC(=O)CCCCN(C)C)(COC(=O)C(CCCCC)CCCCC)COC(=O)C(CCCCC)CCCCC [Example 5, 2-(((5-(Dimethylamino)pentanoyl)oxy)methyl)-2-((heptanoyloxy)methyl)propane-1,3-diyl bis(2-pentylheptanoate)] | 96 | 120 | 83 | 28 | – | – | – | – | – | – | – | – | –
5 | CCCCCCCC(=O)OCC(COC(=O)CCCN(C)C)(COC(=O)C(CCCCCC)CCCCCC)COC(=O)C(CCCCCC)CCCCCC [Example 6, 2-(((4-(Dimethylamino)butanoyl)oxy)methyl)-2-((octanoyloxy)methyl)propane-1,3-diyl bis(2-hexyloctanoate)] | 93 | 389 | 77 | 41 | – | – | – | – | – | – | – | – | –
6 | CCCCCCCC(=O)OCC(COC(=O)CCCCN(C)C)(COC(=O)C(CCCCCC)CCCCCC)COC(=O)C(CCCCCC)CCCCCC [Example 7, 2-(((5-(Dimethylamino)pentanoyl)oxy)methyl)-2-((octanoyloxy)methyl)propane-1,3-diyl bis(2-hexyloctanoate)] | 97 | 376 | 73 | 1.2 | – | – | – | – | – | – | – | – | –
7 | CCCCCCCCCC(=O)OCC(COC(=O)CCCCCCCCC)(COC(=O)CCCCN(C)C)COC(=O)CCC(CCCC)C(CCCC)CCCC (stereo not drawn) [Example 14, 2-(((4,5-Dibutylnonanoyl)oxy)methyl)-2-(((5-(dimethylamino)pentanoyl)oxy)methyl)propane-1,3-diyl didecanoate] | – | – | – | – | 178133 | 76 | 96 | 97 | 126 | 16 | 94 | 134 | 88
8 | CCCCCCCCCC(=O)OCC(COC(=O)CCCCCCCCC)(COC(=O)CCCCN(C)C)COC(=O)CCC(CCC)C(CCC)CCC (stereo not drawn) [Example 16, 2-(((5-(Dimethylamino)pentanoyl)oxy)methyl)-2-(((4,5-dipropyloctanoyl)oxy)methyl)propane-1,3-diyl didecanoate] | – | – | – | – | 141560 | 74 | 96 | 103 | 124 | 15 | 94 | 134 | 109
